Entries after “also recorded” stand apart in the source; their conditions may differ.
What was measured:
[1] = Body weight, water intake, diet consumption, mortality; assay type: in vivo; details: Ldlr−/− mice, western diet 16 weeks, 1 g/L; compared to vehicle or 4-HOBA
Description: The body weight (FIG. 8A), water intake (FIG. 8B), and diet consumption (FIG. 8C) were measured in the Ldlr^−/− mice consuming a Western diet for 16 weeks and treated with 1 g/L 2-HOBA, 4-HOBA, or vehicle. (FIG. 8D) The plasma was pooled from hypercholesterolemic Ldlr^−/− mice (4 mice/group) that were fasted for 6 hours. Fast performance liquid chromatography (FPLC) was performed using a Superose 6 column. Total cholesterol was measured by an enzymatic assay and the average is shown for two pooled plasma samples per group of mice.
Ldlr^−/− and WT on C57BL/6 background mice were obtained from the Jackson Laboratory. Animal protocols were performed according to the regulations of Vanderbilt University's Institutional Animal Care and Usage Committee. Mice were maintained on chow or a Western-type diet containing 21% milk fat and 0.15% cholesterol (Teklad). Eight week old, female Ldlr^−/− mice on a chow diet were pretreated with vehicle alone (Water) or containing either 1 g/L of 4-HOBA or 1 g/L of 2-HOBA. 4-HOBA (as hydrochloride salt) was synthesized as previously described^21. 2-HOBA (as the acetate salt, CAS 1206675-01-5) was manufactured by TSI Co., Ltd. (Missoula, MT) and obtained from Metabolic Technologies, Inc., Ames, IA^24. A commercial production lot was used (Lot 16120312), and the purity of the commercial lot was verified to be >99% via HPLC and NMR spectroscopy^24. […]

[2] = test system: atherosclerotic lesions of Ldlr−/− mice; test: Masson's Trichrome staining of lesions (collagen, fibrous cap, necrotic area); assay type: in vivo, mouse
From the text: Masson's Trichrome Staining was applied for measurement of atherosclerotic lesion collagen content, fibrous cap thickness and necrotic core size following the manufacturer's instructions (Sigma) and as previously described^30. Briefly, 5 μm cross-sections of proximal atherosclerotic aorta root were fixed with Bouin's solution, stained with hematoxylin for nuclei (black) and biebrich scarlet and phosphotungstic/phosphomolybdic acid for cytoplasm (red), and aniline blue for collagen (blue). Images were captured and analyzed for collagen content, atherosclerotic cap thickness and necrotic core by ImageJ software as described previously^30. The necrotic area is normalized to the total lesion area and is expressed as the % necrotic area.

[3] = target: anti-MDA antibody / MDA-BSA (Bos taurus, UniProt P02769); test: Anti-MDA antibody interaction with MDA-BSA (dot blot); details: MDA-BSA incubated with 1× or 5× 2-HOBA
anti-MDA antibody / MDA-BSA, sequence (P02769 25-607): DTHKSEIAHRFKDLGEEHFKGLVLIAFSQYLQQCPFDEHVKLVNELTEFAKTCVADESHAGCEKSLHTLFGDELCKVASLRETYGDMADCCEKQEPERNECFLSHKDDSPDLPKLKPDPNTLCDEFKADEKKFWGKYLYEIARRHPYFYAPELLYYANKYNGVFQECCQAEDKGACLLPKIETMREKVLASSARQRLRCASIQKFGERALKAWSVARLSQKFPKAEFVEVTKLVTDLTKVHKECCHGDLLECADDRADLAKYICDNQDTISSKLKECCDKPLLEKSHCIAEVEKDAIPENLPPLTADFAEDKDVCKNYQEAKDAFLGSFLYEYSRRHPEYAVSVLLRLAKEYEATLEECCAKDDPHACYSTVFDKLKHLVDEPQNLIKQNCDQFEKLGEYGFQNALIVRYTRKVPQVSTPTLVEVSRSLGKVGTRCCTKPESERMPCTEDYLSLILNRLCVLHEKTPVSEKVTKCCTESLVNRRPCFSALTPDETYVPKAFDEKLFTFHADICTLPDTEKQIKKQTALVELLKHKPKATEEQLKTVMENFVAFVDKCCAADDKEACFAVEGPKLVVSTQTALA
Description: A series of doses of MDA-BSA or MDA alone were incubated with 1× or 5×2-HOBA. Then 2 μl of each sample was loaded onto HyBond-C membrane, and incubated with the blocking buffer, primary anti-MDA antibody and fluorescent secondary antibody after vigorous washing. The image was captured by the Odyssey system (FIG. 10A) and quantitated by ImageJ software (FIG. 10B).

## NCc1ccccc1O [2-HOBA, 2-hydroxybenzylamine]
[1]
  body weight, water consumption, diet uptake: did not affect; also recorded: does not impact
[2]
  features of stable atherosclerotic plaques: promotes features of stable atherosclerotic plaques
[2]; compared to 4-HOBA
  increase of collagen content of the proximal aorta: 2.6 fold
[2]; compared to vehicle
  increase of collagen content of the proximal aorta: 2.7 fold
[2]; versus 4-HOBA
  decrease of % of necrotic area in the proximal aorta: 73.5%
  fibrous cap thickness, fold greater: 2.29 fold
[3]
  interference with antibody recognition of MDA-albumin adducts: does not interfere; also recorded: does not impact

From patent publication US20230364032A1, “USE OF 2-HOBA TO TREAT ATHEROSCLEROSIS” (Vanderbilt University, priority 2020, published 2023)
